Data taken from US8710064B2, “2-aryl-4-quinazolinones and their pharmaceutical compositions” (China Medical University, priority 2011, dated 2014).

What was measured:
[1] = system: U87 human glioma xenograft; experiment: in vivo xenograft animal model; design: species or system nude mice; conditions: 1.36 microgram/kg intra-tumor every 2 days for 10 times, after 40 days
Protocol: For tumorigenesis, U87 glioma cells (1×10^6 cells per 100 μl PBS) were inoculated subcutaneously into the right flank of 8-to-10-week-old male nude mice (BALB/cAnN-Foxnlnu/CrlNarl mice, National Laboratory Animal Center, Taiwan). Tumor growth was measured every three days. Tumor volume was calculated by volume (mm^3)=[…] (Zhou, Y. H., Wu, X., Tan, F., Shi, Y. X., Glass, T., Liu, T. J., Wathen, K., Hess, K. R., Gumin, J, Lang, F., et al. (2005). PAX6 suppresses growth of human glioblastoma cells. J Neurooncol 71, 223-229). When the tumors reached a mean volume of 50 to 70 mm^3, MJ-66 (1.36 microgram/kg in saline) or vehicle (DMSO or saline) was injected intratumor once per two days during 20 days.
Since MJ-66 was able to effectively cause glioma to undergo mitotic catastrophe in vitro, whether MJ-66 could inhibit tumor growth in vivo was further examined by U87 human glioma xenograft animal model. Approximately 1×10^6 U87 glioma cells were injected subcutaneously into the nude mice and when tumors size reached 50 to 200 mm^3 in volume, MJ-66 (1.36 microgram/kg in saline) or vehicle (DMSO or saline denoted respectively as DMSO and Control) was administered by intra-tumor every 2 days for 10 times and tumor volume was measured for 50 days. Tumor growth was observed every three days.

C6 glioma cells = experiment: cell cycle assay by flow cytometry with propidium iodide; type: cell-based, rat; conditions: 60 nM
Protocol: To analyze cellular DNA content by flow cytometry, 3×10^5 cells were seeded in 10 cm dish and incubated for 24 hours at 37° C. […] At indicated time points (0, 6, 12, 24 and 48 hr), over 10^6 cells were suspended with 0.05% trypsin-EDTA, and fixed in 70% ethanol over 1 hour at −20° C. After washed by phosphate-buffered saline (PBS) twice, cells were then suspended with 1 ml propidium iodide/Triton-X 100 staining solution (20 μg/ml PI, 0.1% Triton-X 100 and 0.2 mg/ml ribonuclease A (RNase A, Sigma) in PBS) and incubated for 30 minutes at room temperature in the dark. After filtered by 35 μm nylon mesh (Falcon, 352235), the DNA content was then analyzed by flow cytometry (FACS can, BD Bioscience). The cell-cycle distribution (subG1, G1, S, G2/M, and >4N DNA content) of ten thousand cells was analyzed by WinMDI software.
To investigate the cell cycle distribution of MJ-66-treated glioma cell, C6 glioma cells were treated with 60 nM MJ-66 for 0, 6, 12, 24, 36 and 48 hours, and the cell cycle distributions of the percentages of cells at subG1, G1, S and G2/M phases and DNA content of cells were monitored by flow cytometry with propidium iodide staining.

rat primary glia cells = experiment: MTS cell viability assay, rat primary glia cells; type: cell-based; conditions: 0.00625-1 μM
Protocol: The human glioma cell lines U87, U251, T98G, U373, and rat glioma cell line RT2 provided by Dr. Michael Hsiao (Genomics Research Center, Academia Sinica, Taiwan) were cultured in Dulbecco's Modified Eagle medium (DMEM) (Caisson) supplemented with 10% fetal bovine serum (FBS) (Sigma-Aldrich), 2 mM L-glutamine (Caisson), 100 U/ml penicillin, and 100 μg/ml streptomycin (Caisson). The rat glioma C6 cell line provided by Dr. Shun-Fen Tzeng (National Cheng Kung University, Taiwan) was cultured in DMEM/F12 (Caisson) supplemented with 10% fetal bovine serum, 2 mM L-glutamine, 100 U/ml penicillin, and 100 μg/ml streptomycin. […] Cell proliferation was determined by MTS (tetrazolium compound, 3-(4,5-dimethylthiazol-2-yl)-5-(3-carboxymethoxyphenyl)-2-(4-sulfophenyl)-2H-tetrazolium) assay (Promega). […] The absorbance of soluble formazan was measured at 490 nm with microplate reader (Molecular device). The cell viability was determined by the percentage of the absorption relative to untreated control. […] To investigate the influence of MJ-66 on normal glia such as human glia cell line SVGP12 and rat primary glia cells, cells were treated with different concentrations of MJ-66 in vitro (0.00625, 0.0125, 0.025, 0.05, 0.1 and 1 μM) for different time durations (0, 6, 12 and 24 hours) and the cell viability was assessed by MTS assay. […]

SMILES: O=c1[nH]c(-c2cccc3ccccc23)nc2ccc(N3CCCC3)cc12 [Compound 23, 6-(Pyrrolidin-1-yl)-2-(naphthalen-1-yl)quinazolin-4-one]
- tumor growth [1]: significantly inhibited
- tumor volume ([1]; N=8, p<0.01): 435.1 mm^3
- G2/M cell population (C6 glioma cells; after 6 and 12 hours): significantly increased
- sub G1 and >4N DNA content cell population (C6 glioma cells; after 24, 36 and 48 hours, time-dependent): increased
- cell viability of rat glia cells (rat primary glia cells): inhibited
